Experimental data from US20220184034A1, “METHODS FOR TREATING CUTANEOUS METASTATIC CANCERS” (Adgero Biopharmaceuticals Holdings, Inc., priority 2020, published 2022).

Tested on: cutaneous lesions arising from either basal cell cancer, squamous cell cancer or CMBC
Test: Phase 1/2 dose escalation study of SnET2 PDT: lesion response
Type: in vivo, patients
Method: Two Phase 1/2 studies established the clinical dosimetry. The first study was a dose escalation study that enrolled a total of 22 patients with cutaneous lesions arising from either basal cell cancer, squamous cell cancer or CMBC. A total of 213 lesions were treated using photosensitizer SnET2) doses ranging from 0.1-1.2 mg/kg, light doses of 100, 150 or 200 J/cm^2 and treatment timepoints of 24, 48, or 72 hours post-infusion. Two key measures were utilized in these studies, lesion reaction and lesion response. Lesion reaction was an acute characterization of the treatment effect that was performed out to 1 week post-treatment according to the following scale: • Grade 0=No visual erythema or edema • Grade 1=Faint erythema and/or slight edema • Grade 2=Moderate erythema and edema • Grade 3=Severe discoloration, edema, sloughing or eschar
Beginning at one month post-treatment and then at 3 and 6 months post-treatment, a lesion response assessment was conducted according to the following scoring system: • Complete Response (complete reduction of the lesion) • Partial Response (more than 50% reduction of the lesion) • Failure (less than 50% reduction of the lesion).
Therefore, in the analysis that follows, results from all three treatment timepoints have been combined.
A similar result was observed when individual patient responses were compared. In these studies, individual patients received a single drug dose and each patient then had individual lesions treated at various light doses (100, 150, or 200 J/cm^2) and treatment timepoints (24, 48, 72 hours post-infusion). In Table 3, results for each patient treated at 0.8 mg/kg or higher are provided. In each drug dose case, individual lesions were treated at one of the three light doses and one of the three treatment timepoints, all of which have been combined for each individual patient result in the table.

[1] = 0.1 mg/kg, 100 J/cm^2, 24/48/72 h combined
[2] = 0.1 mg/kg, 150 J/cm^2, 24/48/72 h combined
[3] = 0.1 mg/kg, 200 J/cm^2, 24/48/72 h combined
[4] = 0.2 mg/kg, 100 J/cm^2, 24/48/72 h combined
[5] = 0.2 mg/kg, 150 J/cm^2, 24/48/72 h combined
[6] = 0.2 mg/kg, 200 J/cm^2, 24/48/72 h combined
[7] = 0.4 mg/kg, 100 J/cm^2, 24/48/72 h combined
[8] = 0.4 mg/kg, 150 J/cm^2, 24/48/72 h combined
[9] = 0.4 mg/kg, 200 J/cm^2, 24/48/72 h combined
[10] = 0.8 mg/kg, 100 J/cm^2, 24/48/72 h combined
[11] = 0.8 mg/kg, 100 J/cm^2, lesions scored for reaction at Week 1
[12] = 0.8 mg/kg, 150 J/cm^2, 24/48/72 h combined
[13] = 0.8 mg/kg, 150 J/cm^2, lesions scored for reaction at Week 1
[14] = 0.8 mg/kg, 200 J/cm^2, 24/48/72 h combined
[15] = 0.8 mg/kg, 200 J/cm^2, lesions scored for reaction at Week 1
[16] = 1.0 mg/kg, 100 J/cm^2, 24/48/72 h combined
[17] = 1.0 mg/kg, 100 J/cm^2, lesions scored for reaction at Week 1
[18] = 1.0 mg/kg, 150 J/cm^2, 24/48/72 h combined
[19] = 1.0 mg/kg, 150 J/cm^2, lesions scored for reaction at Week 1
[20] = 1.0 mg/kg, 200 J/cm^2, 24/48/72 h combined
[21] = 1.0 mg/kg, 200 J/cm^2, lesions scored for reaction at Week 1
[22] = 1.2 mg/kg, 100 J/cm^2, 24/48/72 h combined
[23] = 1.2 mg/kg, 100 J/cm^2, lesions scored for reaction at Week 1
[24] = 1.2 mg/kg, 150 J/cm^2, 24/48/72 h combined
[25] = 1.2 mg/kg, 150 J/cm^2, lesions scored for reaction at Week 1
[26] = 1.2 mg/kg, 200 J/cm^2, 24/48/72 h combined
[27] = 1.2 mg/kg, 200 J/cm^2, lesions scored for reaction at Week 1
[28] = patient RC004, drug dose 0.8 mg/kg, light doses and timepoints combined
[29] = patient RC005, drug dose 1.2 mg/kg, light doses and timepoints combined
[30] = patient RC006, drug dose 1.2 mg/kg, light doses and timepoints combined
[31] = patient RC007, drug dose 1.2 mg/kg, light doses and timepoints combined
[32] = patient SC001, drug dose 1.2 mg/kg, light doses and timepoints combined
[33] = patient SC002, drug dose 1 mg/kg, light doses and timepoints combined
[34] = patient SC003, drug dose 1 mg/kg, light doses and timepoints combined
[35] = patient SC004, drug dose 1 mg/kg, light doses and timepoints combined
[36] = patient SC005, drug dose 1.2 mg/kg, light doses and timepoints combined
[37] = patient WC007, drug dose 0.8 mg/kg, light doses and timepoints combined
[38] = patient WC008, drug dose 0.8 mg/kg, light doses and timepoints combined
[39] = patient WC009, drug dose 1.2 mg/kg, light doses and timepoints combined
[40] = patient WC010, drug dose 1.2 mg/kg, light doses and timepoints combined

tin ethyl etiopurpurin [SnET2]
Complete Responders [1]: 0 | Partial Responders [1]: 0 | Response Rate (%) [1]: 0% | Total Responders [1]: 0 | Complete Responders [2]: 0 | Partial Responders [2]: 0 | Response Rate (%) [2]: 0% | Total Responders [2]: 0 | Complete Responders [3]: 0 | Partial Responders [3]: 0 | Response Rate (%) [3]: 0% | Total Responders [3]: 0 | Complete Responders [4]: 0 | Partial Responders [4]: 1 | Response Rate (%) [4]: 50% | Total Responders [4]: 1 | Complete Responders [5]: 0 | Partial Responders [5]: 0 | Response Rate (%) [5]: 0% | Total Responders [5]: 0 | Complete Responders [6]: 0 | Partial Responders [6]: 0 | Response Rate (%) [6]: 0% | Total Responders [6]: 0 | Complete Responders [7]: 0 | Partial Responders [7]: 0 | Response Rate (%) [7]: 0% | Total Responders [7]: 0 | Complete Responders [8]: 0 | Partial Responders [8]: 0 | Response Rate (%) [8]: 0% | Total Responders [8]: 0 | Complete Responders [9]: 0 | Partial Responders [9]: 0 | Response Rate (%) [9]: 0% | Total Responders [9]: 0 | lesions with responses (0.8 mg/kg or higher): 95 of 102 | Complete Responders [10]: 9 | Partial Responders [10]: 2 | Response Rate (%) [10]: 78% | Total Responders [10]: 11 | % Responders [11]: 79% | Total Responders [11]: 11 | Complete Responders [12]: 8 | Partial Responders [12]: 5 | Response Rate (%) [12]: 87% | Total Responders [12]: 13 | % Responders [13]: 87% | Total Responders [13]: 13 | Complete Responders [14]: 12 | Partial Responders [14]: 1 | Response Rate (%) [14]: 87% | Total Responders [14]: 13 | % Responders [15]: 87% | Total Responders [15]: 13 | Complete Responders [16]: 3 | Partial Responders [16]: 0 | Response Rate (%) [16]: 100% | Total Responders [16]: 3 | % Responders [17]: 100% | Total Responders [17]: 3 | Complete Responders [18]: 4 | Partial Responders [18]: 1 | Response Rate (%) [18]: 100% | Total Responders [18]: 5 | % Responders [19]: 100% | Total Responders [19]: 5 | Complete Responders [20]: 8 | Partial Responders [20]: 0 | Response Rate (%) [20]: 100% | Total Responders [20]: 8 | % Responders [21]: 100% | Total Responders [21]: 8 | Complete Responders [22]: 5 | Partial Responders [22]: 7 | Response Rate (%) [22]: 100% | Total Responders [22]: 12 | % Responders [23]: 100% | Total Responders [23]: 6 | Complete Responders [24]: 7 | Partial Responders [24]: 9 | Response Rate (%) [24]: 100% | Total Responders [24]: 16 | % Responders [25]: 100% | Total Responders [25]: 9 | Complete Responders [26]: 11 | Partial Responders [26]: 3 | Response Rate (%) [26]: 100% | Total Responders [26]: 14 | % Responders [27]: 100% | Total Responders [27]: 7 | response rate of individual patients (all patients at 0.8 mg/kg or higher, with the exception of one patient dosed at 0.8 mg/kg): 100% | response at the drug dose threshold and greater (at about 0.5 to about 0.8 mg/kg and greater (1.2 mg/kg)): good responses were observed | threshold dose for lesion response (dose escalation 0.1-1.2 mg/kg): 0.8 mg/kg | response below the drug dose threshold (doses below about 0.5 to about 0.8 mg/kg): no response was observed | Lesions Responded (doses less than 0.8 mg/kg): 1 of 111 | influence of light dose and treatment timepoint (light doses 100 to 200 J/cm^2, timepoints 24 to 72 hours post administration): did not indicate significant differences | variation in response with treatment timepoint (light given at 24, 48 or 72 hours after administration): minimal variation in response with treatment timepoint | % Lesions Responded [28]: 74% | Lesions Responded [28]: 20 | % Lesions Responded [29]: 100% | Lesions Responded [29]: 6 | % Lesions Responded [30]: 100% | Lesions Responded [30]: 1 | % Lesions Responded [31]: 100% | Lesions Responded [31]: 3 | % Lesions Responded [32]: 100% | Lesions Responded [32]: 4 | % Lesions Responded [33]: 100% | Lesions Responded [33]: 6 | % Lesions Responded [34]: 100% | Lesions Responded [34]: 6 | % Lesions Responded [35]: 100% | Lesions Responded [35]: 4 | % Lesions Responded [36]: 100% | Lesions Responded [36]: 6 | % Lesions Responded [37]: 100% | Lesions Responded [37]: 9 | % Lesions Responded [38]: 100% | Lesions Responded [38]: 8 | % Lesions Responded [39]: 100% | Lesions Responded [39]: 20 | % Lesions Responded [40]: 100% | Lesions Responded [40]: 2
